ChEMBL document CHEMBL5154876, “Design, synthesis and promising anti-tumor efficacy of novel imidazo[1,2-a]pyridine derivatives as potent autotaxin allosteric inhibitors” (Eur J Med Chem, 2022)

How the values were obtained:
Autotaxin = Autotaxin (Homo sapiens, UniProt Q13822); assay: Negative allosteric modulation activity against human ATX using FS-3 as substrate preincubated for 45 mins followed by substrate addition and measured every 30 mins by multi-mode microplate reader
RAW264.7 = assay: Cytotoxicity against mouse RAW264.7 cells assessed as inhibition of cell growth incubated for 72 hrs by MTT assay; type: functional, cell-based; conditions: RAW264.7, 72 h
MCF7 = assay: Cytotoxicity against human MCF-7 cells assessed as inhibition of cell growth incubated for 72 hrs by MTT assay; type: functional, cell-based; conditions: MCF7, 72 h
A549 = assay: Cytotoxicity against human A549 cells assessed as inhibition of cell growth incubated for 72 hrs by MTT assay; type: functional, cell-based; conditions: A549, 72 h
MDA-MB-231 = assay: Cytotoxicity against human MDA-MB-231 cells assessed as inhibition of cell growth incubated for 72 hrs by MTT assay; type: functional, cell-based; conditions: MDA-MB-231, 72 h
NCI-H2228 = assay: Cytotoxicity against human H2228 cells assessed as inhibition of cell growth incubated for 72 hrs by MTT assay; type: functional, cell-based; conditions: NCI-H2228, 72 h
NCI-H1581 = assay: Cytotoxicity against human NCI-H1581 cells assessed as inhibition of cell growth incubated for 72 hrs by MTT assay; type: functional, cell-based; conditions: NCI-H1581, 72 h
Hep 3B2 = assay: Cytotoxicity against human Hep3B cells assessed as inhibition of cell growth incubated for 72 hrs by MTT assay; type: functional, cell-based

Row | Structure (SMILES) | IC50 (Autotaxin) | IC50 (RAW264.7) | IC50 (MCF7) | IC50 (A549) | IC50 (MDA-MB-231) | IC50 (NCI-H2228) | IC50 (NCI-H1581) | IC50 (Hep 3B2)
1 | CCc1nc2c(C)cc(-c3ccc(CN4CCCCC4)cc3)cn2c1NC(=O)OCc1cc(Cl)cc(Cl)c1 | 0.164 µM | – | – | – | – | – | – | –
2 | CCc1nc2c(C)cc(-c3ccc(CN4CCN(CC)CC4)cc3)cn2c1NC(=O)OCc1ccc(C(F)(F)F)cc1 | 0.234 µM | – | – | – | – | – | – | –
3 | CCc1nc2c(C)cc(-c3ccc(CN4CCN(CCO)CC4)cc3)cn2c1NC(=O)OCc1ccc(F)cc1 | 0.0071 µM | > 20 µM | > 20 µM | > 20 µM | > 20 µM | > 20 µM | > 20 µM | > 20 µM
4 | CCc1nc2c(C)cc(-c3ccc(CN4CCN(C)CC4)cc3)cn2c1NC(=O)OCc1ccc(F)c(F)c1 | 0.154 µM | 3.59 µM | 6.44 µM | > 20 µM | 6.23 µM | – | – | 4.94 µM
5 | CCc1nc2c(C)cc(-c3ccc(CN4CCN(C)CC4)cc3)cn2c1NC(=O)OCc1cc(Cl)cc(Cl)c1 | 0.217 µM | 1.41 µM | 5.78 µM | 4.02 µM | – | – | – | 4.9 µM
6 | CCc1nc2c(C)cc(-c3ccc(CN4CCN(C)CC4)cc3)cn2c1NC(=O)OCc1ccc(C(F)(F)F)cc1 | 0.313 µM | > 20 µM | > 20 µM | > 20 µM | 4.31 µM | – | – | > 20 µM
7 | CCc1nc2c(C)cc(-c3ccc(CN4CCC[C@H]4CO)cc3)cn2c1NC(=O)OCc1ccc(F)cc1 | 0.0264 µM | > 20 µM | > 20 µM | > 20 µM | > 20 µM | > 20 µM | > 20 µM | > 20 µM
8 | CCc1nc2c(C)cc(-c3ccc(CN4CCC[C@H]4CO)cc3)cn2c1NC(=O)OCc1cc(Cl)cc(Cl)c1 | 0.041 µM | 2.51 µM | – | 5.78 µM | – | – | – | –
9 | CCc1nc2c(C)cc(-c3ccc(CN4CCC(C)CC4)cc3)cn2c1NC(=O)OCc1cc(Cl)cc(Cl)c1 | 0.024 µM | 2.13 µM | 3.98 µM | 8.18 µM | 5.83 µM | 5.15 µM | 4.04 µM | 4.85 µM
10 | CCc1nc2c(C)cc(N3CCN(CC(=O)N4CC(O)C4)CC3)cn2c1N(C)c1nc(-c2ccc(F)cc2)c(C#N)s1 [ZIRITAXESTAT] | – | > 20 µM | > 20 µM | > 20 µM | > 20 µM | > 20 µM | > 20 µM | > 20 µM
11 | CCc1nc2c(C)cc(-c3ccc(CO)cc3)cn2c1NC(=O)OCc1ccc(F)c(F)c1 | > 1 µM | – | – | – | – | – | – | –
12 | CCc1nc2c(C)cc(-c3ccc(CN4CCC(O)CC4)cc3)cn2c1NC(=O)OCc1cc(Cl)cc(Cl)c1 | 0.017 µM | 4.58 µM | 5.32 µM | – | 1.58 µM | 7.36 µM | 4.8 µM | –
13 | CCc1nc2c(C)cc(-c3ccc(CN4CCSCC4)cc3)cn2c1NC(=O)OCc1cc(Cl)cc(Cl)c1 | 0.091 µM | – | > 20 µM | > 20 µM | – | – | – | > 20 µM
14 | CCc1nc2c(C)cc(-c3ccc(CN4CCSCC4)cc3)cn2c1NC(=O)OCc1ccc(F)c(F)c1 | 0.287 µM | – | – | > 20 µM | > 20 µM | – | – | > 20 µM
15 | CCc1nc2c(C)cc(-c3ccc(CN(CCO)CCO)cc3)cn2c1NC(=O)OCc1cc(Cl)cc(Cl)c1 | 0.071 µM | – | – | – | – | – | – | –
16 | CCc1nc2c(C)cc(-c3ccc(CN4CCOCC4)cc3)cn2c1NC(=O)OCc1ccc(F)cc1 | 0.0513 µM | > 20 µM | > 20 µM | > 20 µM | > 20 µM | > 20 µM | > 20 µM | > 20 µM
17 | CCc1nc2c(C)cc(-c3ccc(CN4CCOCC4)cc3)cn2c1NC(=O)OCc1ccc(OC)c(Cl)c1 | 0.0335 µM | > 20 µM | > 20 µM | > 20 µM | > 20 µM | > 20 µM | > 20 µM | > 20 µM
18 | CCc1nc2c(C)cc(-c3ccc(CNCCO)cc3)cn2c1NC(=O)OCc1cc(Cl)cc(Cl)c1 | 0.034 µM | – | > 20 µM | > 20 µM | > 20 µM | – | – | > 20 µM
19 | CCc1nc2c(C)cc(-c3ccc(CN4CCOCC4)cc3)cn2c1NC(=O)OCc1cc(Cl)cc(Cl)c1 | 0.129 µM | – | – | – | – | – | – | –
20 | CCc1nc2c(C)cc(-c3ccc(CN4CCN(CCO)CC4)cc3)cn2c1NC(=O)OCc1ccc(F)c(F)c1 | 0.041 µM | 5 µM | 9.51 µM | 5.58 µM | 4.83 µM | 9.65 µM | – | 10.6 µM
21 | CCc1nc2c(C)cc(-c3ccc(CN4CCN(CCO)CC4)cc3)cn2c1NC(=O)OCc1ccc(C(F)(F)F)cc1 | 0.081 µM | 1.98 µM | 7.01 µM | 5.06 µM | – | – | 5.67 µM | 6.09 µM
22 | O=C(CCN1CCN(C(=O)OCc2cc(Cl)cc(Cl)c2)CC1)c1ccc2[nH]c(=O)oc2c1 | – | 9.58 µM | > 20 µM | > 20 µM | > 20 µM | > 20 µM | > 20 µM | > 20 µM
23 | CCc1nc2c(C)cc(-c3ccc(CN4CCN(CC)CC4)cc3)cn2c1NC(=O)OCc1ccc(F)c(F)c1 | 0.171 µM | – | – | – | – | – | – | –
24 | CCc1nc2c(C)cc(-c3ccc(CN4CCCC4)cc3)cn2c1NC(=O)OCc1cc(Cl)cc(Cl)c1 | 0.14 µM | – | – | – | – | – | – | –
